The record followed here is ChEMBL document CHEMBL1129154, “()-SCH 57939: synthesis and pharmacological properties of a potent, metabolically stable cholesterol absorption inhibitor” (1996).

What all share (assay type): functional, Cricetulus griseus
For assay [1], the system named is Cricetinae gen. sp. As to the kind of experiment: Compound was evaluated for the percent reduction in liver cholesterol ester levels in cholesterol fed hamster model at 1 mg/kg.
For assay [2], the system named is Cricetinae gen. sp. As to the kind of experiment: Compound was evaluated for the percent reduction in liver cholesterol ester levels in cholesterol fed hamster model at […].
Assay [3] concerns Cricetinae gen. sp. As to the kind of experiment: Compound was evaluated in vivo for the cholesterol lowering activity in hamster model.
Assay [4] relates to Cricetinae gen. sp. As to the kind of experiment: Compound was evaluated for the percent reduction in liver cholesterol ester levels in cholesterol fed hamster model at 0.3 mg/kg.
Assay [5] deals with Cricetinae gen. sp. Kind of assay: Compound was evaluated for the percent reduction in liver cholesterol ester levels in cholesterol fed hamster model at 10 mpk.
Assay [6] relates to Cricetinae gen. sp. Kind of assay: Compound was evaluated for the percent reduction in liver cholesterol ester levels in cholesterol fed hamster model at 10 mg/kg.

In the case of `COc1ccc([C@@H]2[C@@H]([C@H](O)COc3ccc(F)cc3)C(=O)N2c2ccccc2)cc1` (racemic), in the assay with Cricetinae gen. sp. [1] (1 mg/kg), the L/CE is recorded as -57%.

Take `O=C1[C@@H]([C@H](O)COc2ccc(F)cc2)[C@@H](c2ccc(O)cc2)N1c1ccc(F)cc1`: the L/CE in the assay on Cricetinae gen. sp. [2] came out at 0%. As to `O=C1[C@H]([C@H](O)COc2ccc(F)cc2)[C@@H](c2ccc(O)cc2)N1c1ccc(F)cc1` (racemic), in the assay with Cricetinae gen. sp. [1], the L/CE is given as -38%. In addition, the ED50 in the assay on Cricetinae gen. sp. [3] is listed as 0.7 MPK. As to `COc1ccc([C@@H]2[C@@H]([C@H](O)COc3ccc(F)cc3)C(=O)N2c2ccccc2)cc1`, the L/CE with Cricetinae gen. sp. [1] (1 mg/kg) was -84%. The ED50 in the assay with Cricetinae gen. sp. [3] (Cricetinae gen. sp., read-out: ED50) came to 0.3 mg/kg. `O=C1[C@H]([C@H](O)COc2ccc(F)cc2)[C@@H](c2ccc(O)cc2)N1c1ccc(F)cc1`: the L/CE in the assay on Cricetinae gen. sp. [4] is given as -70%. This molecule also returned an ED50 with Cricetinae gen. sp. [3] of 0.27 MPK.

For `O=C1[C@H]([C@@H](O)COc2ccc(F)cc2)[C@H](c2ccc(O)cc2)N1c1ccc(F)cc1` (racemic), in the assay with Cricetinae gen. sp. [5], the L/CE is on record as -39%.

`COc1ccc([C@@H]2N(c3ccccc3)C(=O)[C@]2(C)[C@@H](O)COc2ccc(F)cc2)cc1` (racemic): the L/CE in the assay on Cricetinae gen. sp. [6] is given as -48%.
